One experiment addresses T1, Adrenergic β2 (Homo sapiens, UniProt P07550).
T1 construct: Adherent H292 cells were removed from tissue culture flasks; endogenous in cells; host or cells: H292 cells
Description: Adrenergic β2 mediated cAMP production in H292 cells. The format is cell-based. Conditions: for EC50: H292 cells, cAMP by AlphaScreen, 60 minutes at room temperature, rolipram 300 μM, read-out: β2 pEC50 (converted); for β2 Int Act: Intrinsic Activity as a fraction relative to the maximum activity determined for formoterol. The essentials: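 H292 cells pretreated 10 min with rolipram (300 μM final), then exposed to agonist 60 min at room temperature in HEPES-buffered HBSS, 1.6% DMSO final. Lysate cAMP quantified by AlphaScreen against a cAMP standard curve; four-parameter fit gives pEC50 and intrinsic activity relative to formoterol maximum.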
In general terms: cAMP levels reflect the balance of adenylyl cyclase and phosphodiesterase activity.

In experiment [1] the target is T2, recombinant human α1D receptor (Homo sapiens, UniProt P25100).
T2 construct: expressed in transfected cells; host or cells: HEK293
T2 sequence (P25100 1-572): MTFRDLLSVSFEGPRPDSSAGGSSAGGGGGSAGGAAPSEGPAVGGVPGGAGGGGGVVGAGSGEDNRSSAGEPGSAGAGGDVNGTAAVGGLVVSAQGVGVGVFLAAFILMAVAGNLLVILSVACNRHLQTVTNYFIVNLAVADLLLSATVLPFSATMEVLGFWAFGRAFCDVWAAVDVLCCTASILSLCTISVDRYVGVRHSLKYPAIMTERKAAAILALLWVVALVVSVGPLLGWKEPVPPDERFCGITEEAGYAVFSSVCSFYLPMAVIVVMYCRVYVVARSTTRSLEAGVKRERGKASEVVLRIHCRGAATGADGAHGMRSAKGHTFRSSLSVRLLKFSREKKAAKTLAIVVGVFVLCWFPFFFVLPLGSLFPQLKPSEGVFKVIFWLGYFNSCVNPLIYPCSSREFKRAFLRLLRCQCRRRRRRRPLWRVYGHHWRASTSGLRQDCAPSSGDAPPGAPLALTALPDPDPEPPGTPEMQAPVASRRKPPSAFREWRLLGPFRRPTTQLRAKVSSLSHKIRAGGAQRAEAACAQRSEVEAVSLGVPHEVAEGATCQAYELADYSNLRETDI
In words: Adrenergic α1D selectivity binding assay ([3H]-prazosin). The settings on record: inhibition of [3H]-prazosin (0.3 nM) binding, HEK293 membranes; read-out: α1 bind pIC50 (converted). The essentials:
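HEK293 membranes with recombinant human α1D receptor incubated 2 h at room temperature with 0.3 nM [3H]-prazosin and compound in 50 mM HEPES, 1 mM EDTA, 0.1% gelatin, pH 7.4; BMY7378 (10 μM) defined non-specific binding. Filter-bound radioactivity counted; pIC50 from four-parameter logistic fit.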

Structures can show the parent of a compound that is named as a salt.

T1 sequence (P07550 whole entry): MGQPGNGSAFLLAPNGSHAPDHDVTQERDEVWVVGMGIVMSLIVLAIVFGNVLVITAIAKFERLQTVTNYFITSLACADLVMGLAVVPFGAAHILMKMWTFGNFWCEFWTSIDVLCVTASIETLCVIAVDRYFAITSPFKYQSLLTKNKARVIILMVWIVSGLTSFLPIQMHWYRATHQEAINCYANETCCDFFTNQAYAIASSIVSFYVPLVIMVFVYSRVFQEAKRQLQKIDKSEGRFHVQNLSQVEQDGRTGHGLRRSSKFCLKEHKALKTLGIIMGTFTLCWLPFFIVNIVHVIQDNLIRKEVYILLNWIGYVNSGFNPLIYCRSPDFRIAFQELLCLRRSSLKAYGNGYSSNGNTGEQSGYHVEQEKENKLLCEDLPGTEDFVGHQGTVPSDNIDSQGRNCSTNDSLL

Consider `CC(C)(C)CN(CCNCCc1ccc(O)c2[nH]c(=O)sc12)C(=O)CCNCCc1cccc(F)c1` [Example 44, N^1-(2,2-Dimethylpropyl)-N^3-[2-(3-fluorophenyl)ethyl]-N^1-(2-{[2-(4-hydroxy-2-oxo-2,3-dihydro-1,3-benzothiazol-7-yl)ethyl]amino}ethyl)-β-alaninamide bis-trifluoroacetic acid salt], for which, on Adrenergic β2, the EC50 was 6.31 nM and the “β2 Int Act” value turned out to be 0.73. The IC50 in experiment [1] was 316 nM.

Regarding `CC(C)(CN(CCNCCc1ccc(O)c2[nH]c(=O)sc12)C(=O)CCNCCc1ccccc1)c1ccccc1` [Example 45, N^1-(2-{[2-(4-Hydroxy-2-oxo-2,3-dihydro-1,3-benzothiazol-7-yl)ethyl]amino}ethyl)-N^1-(2-methyl-2-phenylpropyl)-N^3-(2-phenylethyl)-β-alaninamide bis-trifluoroacetic acid salt], at Adrenergic β2, the EC50 is 25.1 nM and the “β2 Int Act” value came to 0.55. Besides, the IC50 in experiment [1] was 200 nM.

Take `O=C(CCNCCc1ccccc1Cl)N(CCNCCc1ccc(O)c2[nH]c(=O)sc12)C1CCC(F)(F)CC1` [Example 46, N^3-[2-(2-Chlorophenyl)ethyl]-N^1-(4,4-difluorocyclohexyl)-N^1-(2-{[2-(4-hydroxy-2-oxo-2,3-dihydro-1,3-benzothiazol-7-yl)ethyl]amino}ethyl)-β-alaninamide bis-trifluoroacetic acid salt]: at Adrenergic β2, the EC50 was 3.16 nM and the “β2 Int Act” value was 0.78. In experiment [1], the IC50 is 158 nM.

On to `O=C(CCNCCc1cccc(Cl)c1)N(CCNCCc1ccc(O)c2[nH]c(=O)sc12)C1CCC(F)(F)CC1` [Example 47, N^3-[2-(3-Chlorophenyl)ethyl]-N^1-(4,4-difluorocyclohexyl)-N^1-(2-{[2-(4-hydroxy-2-oxo-2,3-dihydro-1,3-benzothiazol-7-yl)ethyl]amino}ethyl)-β-alaninamide bis-trifluoroacetic acid salt], for which, on Adrenergic β2, the EC50 was 3.16 nM and the “β2 Int Act” value worked out at 0.73. Also, in experiment [1], the IC50 is 501 nM.

For `O=C(CCNCCc1ccc(Cl)cc1)N(CCNCCc1ccc(O)c2[nH]c(=O)sc12)C1CCC(F)(F)CC1` [Example 48, N^3-[2-(4-Chlorophenyl)ethyl]-N^1-(4,4-difluorocyclohexyl)-N^1-(2-{[2-(4-hydroxy-2-oxo-2,3-dihydro-1,3-benzothiazol-7-yl)ethyl]amino}ethyl)-β-alaninamide bis-trifluoroacetic acid salt], at Adrenergic β2, the EC50 was 10 nM and the “β2 Int Act” value is listed as 0.55. The IC50 in experiment [1] was 631 nM.

`O=C(CCNCCc1cccc(Cl)c1)N(CCNCCc1ccc(O)c2[nH]c(=O)sc12)C1CCCCCC1` [Example 50, N^3-[2-(3-Chlorophenyl)ethyl]-N^1-cycloheptyl-N^1-(2-{[2-(4-hydroxy-2-oxo-2,3-dihydro-1,3-benzothiazol-7-yl)ethyl]amino}ethyl)-β-alaninamide bis-trifluoroacetic acid salt]: at Adrenergic β2, the EC50 was 1.26 nM and the “β2 Int Act” value was found to be 0.91. The IC50 in experiment [1] is 79.4 nM.

As for `O=C(CCNCCc1ccc(Cl)cc1)N(CCNCCc1ccc(O)c2[nH]c(=O)sc12)C1CCCCCC1` [Example 51, N^3-[2-(4-Chlorophenyl)ethyl]-N^1-cycloheptyl-N^1-(2-{[2-(4-hydroxy-2-oxo-2,3-dihydro-1,3-benzothiazol-7-yl)ethyl]amino}ethyl)-β-alaninamide bis-trifluoroacetic acid salt], on Adrenergic β2, the EC50 is 5.01 nM and the “β2 Int Act” value was determined as 0.59. Also, the IC50 in experiment [1] was 316 nM.

Turning to `O=C(CCNCCc1cccs1)N(CCNCCc1ccc(O)c2[nH]c(=O)sc12)C1CCCCCC1` [Example 52, N^1-Cycloheptyl-N^1-(2-{[2-(4-hydroxy-2-oxo-2,3-dihydro-1,3-benzothiazol-7-yl)ethyl]amino}ethyl)-N^3-[2-(2-thienyl)ethyl]-β-alaninamide bis-trifluoroacetic acid salt], at Adrenergic β2, the EC50 was 3.16 nM and the “β2 Int Act” value is recorded as 0.92. For the same compound, in experiment [1], the IC50 is 100 nM.

For the compound `O=C(CCNCCc1ccc(F)c(F)c1)N(CCNCCc1ccc(O)c2[nH]c(=O)sc12)C1CCCCCC1` [Example 53, N^1-Cycloheptyl-N^1-[2-(3,4-difluorophenyl)ethyl]-N^1-(2-{[2-(4-hydroxy-2-oxo-2,3-dihydro-1,3-benzothiazol-7-yl)ethyl]amino}ethyl)-β-alaninamide bis-trifluoroacetic acid salt], on Adrenergic β2, the EC50 is 10 nM and the “β2 Int Act” value is 0.74. For the same compound, in experiment [1], the IC50 was 126 nM.

Consider `O=C(CCNCCc1cccc(OC(F)F)c1)N(CCNCCc1ccc(O)c2[nH]c(=O)sc12)C1CCCCCC1` [Example 54, N-Cycloheptyl-N^3-{2-[3-(difluoromethoxy)phenyl]ethyl}-N^1-(2-{[2-(4-hydroxy-2-oxo-2,3-dihydro-1,3-benzothiazol-7-yl)ethyl]amino}ethyl)-β-alaninamide bis-trifluoroacetic acid salt], for which, at Adrenergic β2, the EC50 is 10 nM and the “β2 Int Act” value came out at 0.69. Further, the IC50 in experiment [1] is 316 nM.

In the case of `O=C(CCNCCc1ccc(F)cc1F)N(CCNCCc1ccc(O)c2[nH]c(=O)sc12)C1CCCCCC1` [Example 55, N^1-Cycloheptyl-N^3-[2-(2,4-difluorophenyl)ethyl]-N^1-(2-{[2-(4-hydroxy-2-oxo-2,3-dihydro-1,3-benzothiazol-7-yl)ethyl]amino}ethyl)-β-alaninamide bis-trifluoroacetic acid salt], at Adrenergic β2, the EC50 was 10 nM and the “β2 Int Act” value came out at 0.81. Also, in experiment [1], the IC50 is 50.1 nM.

As for `O=C(CCNCCc1cccc(F)c1F)N(CCNCCc1ccc(O)c2[nH]c(=O)sc12)C1CCCCCC1` [Example 56, N^1-Cycloheptyl-N^3-[2-(2,3-difluorophenyl)ethyl]-N^1-(2-{[2-(4-hydroxy-2-oxo-2,3-dihydro-1,3-benzothiazol-7-yl)ethyl]amino}ethyl)-β-alaninamide bis-trifluoroacetic acid salt], on Adrenergic β2, the EC50 is 5.01 nM and the “β2 Int Act” value was determined as 0.86. Besides, the IC50 in experiment [1] was 251 nM.

For the compound `O=C(CCNCCc1ccc(F)cc1Cl)N(CCNCCc1ccc(O)c2[nH]c(=O)sc12)C1CCCCCC1` [Example 57, N^3-[2-(2-Chloro-4-fluorophenyl)ethyl]-N^1-cycloheptyl-N^1-(2-{[2-(4-hydroxy-2-oxo-2,3-dihydro-1,3-benzothiazol-7-yl)ethyl]amino}ethyl)-β-alaninamide bis-trifluoroacetic acid salt], on Adrenergic β2, the EC50 is 20 nM and the “β2 Int Act” value is listed as 0.72. Also, in experiment [1], the IC50 is 50.1 nM.

For the compound `O=C(CCNCCc1cc(F)cc(F)c1)N(CCNCCc1ccc(O)c2[nH]c(=O)sc12)C1CCCCCC1` [Example 58, N^1-Cycloheptyl-N^3-[2-(3,5-difluorophenyl)ethyl]-N^1-(2-{[2-(4-hydroxy-2-oxo-2,3-dihydro-1,3-benzothiazol-7-yl)ethyl]amino}ethyl)-β-alaninamide bis-trifluoroacetic acid salt], at Adrenergic β2, the EC50 was 3.98 nM and the “β2 Int Act” value was determined as 0.84. The IC50 in experiment [1] was 251 nM.

The values are drawn from patent US20100022491A1, “4-HYDROXY-2-OXO-2,3-DIHYDRO-1,3-BENZOTHIAZOL-7YL COMPOUNDS FOR MODULATION OF B2-ADRENORECEPTOR ACTIVITY” (ASTRAZENECA AB, priority 2006, published 2010).
